Measured values as given in PMC6643147 (International Journal of Biological Sciences, 2019).

Target: PI3Kα (Homo sapiens, UniProt P42336)
Experiment: cell-free ADP-Glo kinase assay with recombinant PI3Kα and poly-EY substrate
Type: biochemical

Chain of PI3Kα (P42336 whole entry): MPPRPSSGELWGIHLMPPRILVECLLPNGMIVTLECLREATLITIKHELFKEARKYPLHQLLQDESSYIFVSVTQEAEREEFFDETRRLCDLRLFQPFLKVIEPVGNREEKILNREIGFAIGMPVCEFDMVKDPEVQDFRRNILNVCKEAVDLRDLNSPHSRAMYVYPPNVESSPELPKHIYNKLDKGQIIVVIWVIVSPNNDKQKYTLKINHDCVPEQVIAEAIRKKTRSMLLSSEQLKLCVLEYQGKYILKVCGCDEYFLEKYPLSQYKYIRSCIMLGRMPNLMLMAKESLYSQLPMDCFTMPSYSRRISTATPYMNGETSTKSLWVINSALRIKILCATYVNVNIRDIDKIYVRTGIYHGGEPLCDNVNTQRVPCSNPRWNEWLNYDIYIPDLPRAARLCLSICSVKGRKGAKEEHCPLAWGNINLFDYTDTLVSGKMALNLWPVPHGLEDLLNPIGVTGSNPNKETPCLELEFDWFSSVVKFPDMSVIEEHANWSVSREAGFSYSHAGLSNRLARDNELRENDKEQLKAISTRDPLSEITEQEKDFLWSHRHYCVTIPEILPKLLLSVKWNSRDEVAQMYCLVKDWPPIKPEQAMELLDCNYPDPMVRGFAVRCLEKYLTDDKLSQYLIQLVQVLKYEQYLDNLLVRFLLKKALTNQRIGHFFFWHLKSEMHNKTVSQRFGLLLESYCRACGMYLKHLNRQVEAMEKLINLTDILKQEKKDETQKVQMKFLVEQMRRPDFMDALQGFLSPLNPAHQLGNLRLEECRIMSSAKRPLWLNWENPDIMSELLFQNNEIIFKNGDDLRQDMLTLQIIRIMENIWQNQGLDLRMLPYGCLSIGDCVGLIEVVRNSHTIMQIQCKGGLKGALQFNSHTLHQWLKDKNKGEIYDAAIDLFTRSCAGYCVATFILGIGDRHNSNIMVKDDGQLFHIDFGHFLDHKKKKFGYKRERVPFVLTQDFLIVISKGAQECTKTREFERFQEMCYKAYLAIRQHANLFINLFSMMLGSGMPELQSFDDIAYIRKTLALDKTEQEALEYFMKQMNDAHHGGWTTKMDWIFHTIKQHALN
Chain of PI3Kα (P27986 2-724, further chain): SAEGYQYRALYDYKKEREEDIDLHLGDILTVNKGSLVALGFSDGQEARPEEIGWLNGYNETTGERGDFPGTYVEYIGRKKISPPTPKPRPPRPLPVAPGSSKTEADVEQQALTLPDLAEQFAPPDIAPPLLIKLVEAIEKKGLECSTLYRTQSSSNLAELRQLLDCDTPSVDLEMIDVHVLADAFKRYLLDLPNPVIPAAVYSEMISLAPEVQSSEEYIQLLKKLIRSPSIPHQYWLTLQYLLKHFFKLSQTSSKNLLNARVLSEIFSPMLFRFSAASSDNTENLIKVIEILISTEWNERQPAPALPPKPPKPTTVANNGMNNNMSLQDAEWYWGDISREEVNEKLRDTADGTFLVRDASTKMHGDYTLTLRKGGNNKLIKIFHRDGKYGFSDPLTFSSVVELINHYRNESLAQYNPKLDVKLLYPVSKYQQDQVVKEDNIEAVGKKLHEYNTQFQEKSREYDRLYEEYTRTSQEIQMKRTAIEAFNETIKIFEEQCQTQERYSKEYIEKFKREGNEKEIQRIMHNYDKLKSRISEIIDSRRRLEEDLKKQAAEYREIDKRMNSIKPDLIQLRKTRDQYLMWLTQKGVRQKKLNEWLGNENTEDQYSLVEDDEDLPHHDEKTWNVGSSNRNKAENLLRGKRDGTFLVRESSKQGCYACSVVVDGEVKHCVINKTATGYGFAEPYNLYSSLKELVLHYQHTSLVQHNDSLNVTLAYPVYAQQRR

IC50: 127 ± 5.87 nM
SMILES: OCCN1CCN(CC/C=C2/c3ccccc3Sc3ccc(C(F)(F)F)cc32)CC1 [flupentixol]
